# Data: patent publication US7592003B2, “Regulation of toll-like receptors on stem cells” (Oklahoma Medical Research Foundation, priority 2005, dated 2009)
# Experiments:
# CLP = experiment: Single cell culture of TLR ligand pre-treated CLP on OP9 stromal cells; format: cell-based, mouse; details: 24 h pre-treatment, 10 days on OP9
# Method: FIG. 7—Altered differentiation patterns of single lymphoid progenitors activated via TLRs. Sorted CLP were cultured in the presence of SCF, FL and IL-7 with medium alone, LPS (10 μg/ml) or Pam3CSK4 (1 μg/ml). After 24 h, cultured cells were harvested and washed three times with medium. Single cultured cells were then sorted and re-cultured on OP9 stromal cells in 96-well plates for 10 days in the presence of SCF, FL and IL-7. Positive colonies were examined by flow cytometry (representative examples shown on top row). The frequencies of wells with each of these differentiation patterns are shown along with total numbers of clones observed.
# Single cell culture on OP9 stromal cells. Sorted CLP were cultured with X-VIVO15in the presence of SCF (20 ng/ml), FL (100 ng/ml) and IL-7 (1 ng/ml) with or without LPS (10 μg/ml), or Pam3CSK4 (1 μg/ml). After 24 h, cultured cells were harvested and washed with medium three times. A single cell sorting for the cultured cells was then conducted on a FACSAria™ and a single cell was plated on OP9 stromal cells in 96-well plate and cultured for 10 days in the presence of SCF (20 ng/ml), FL (100 ng/ml) and IL-7 (1 ng/ml). […] Positive wells (more than 30 cells) were determined by microscopic observation. Cells were harvested and then stained with mAbs to CD19, CD11c, and Mac-1 and analyzed by flow cytometry. […]
# LKS^− cells = experiment: Serum-free culture of LKS- myeloid/erythroid progenitors (and CMP, GMP subsets), F4/80 by flow cytometry; format: cell-based, mouse; details: 72 h, compared with CSF stimulation
# Method: FIGS. 4A-D—Activation of TLRs through MyD88 bypasses normal differentiation cues and drives monocytes/macrophages differentiation of myeloid progenitors. (FIG. 4A) Sorted LKS^− cells from C57BL/6 or MyD88^−/− mice were stimulated with medium alone, LPS (10 μg/ml), Pam3CSK4 (1 μg/ml), M-CSF, or GM-CSF. After 72 h in culture, cells were analyzed by flow cytometry for expression of F4/80. Open histograms depict staining with the isotype matched Ab for F4/80. Percentages given in each histogram indicate the frequencies of F4/80^+ cells and the results are representative of three independent experiments. (FIG. 4B) The bar graph depicts yields, i.e., numbers of F4/80^+ cell recovered per input progenitor. Data represent mean values with standard deviations from triplicate cultures and the results are representative of three independent experiments (*P<0.005). […] After 72 h in culture, cells were analyzed by flow cytometry for expression of F4/80. […] After 24 or 48 h in culture, cells were analyzed by flow cytometry for expression of F4/80. […]
# FIG. 13—TLR stimulation causes rapid production of F4/80^+ cells from LKS^− cells. […] Stimulated wells were analyzed after 24 h or 48 h of culture by flow cytometry for expression of F4/80. […]
substance,measurement,setting,value
Pam3CSK4,Numbers of pure CD19+ B cell clones,CLP,did not alter the production of CD19^+ B cell clones
same,Numbers of pure mDC colonies,CLP,enhanced production of colonies with pure mDC
same,Yields of F4/80+ cells from LKS- cells,LKS^− cells,consistently a less potent stimulus
